Legend:
[1] = compared with erythromycin; cited from earlier work
PMN = experiment: Antimicrobial agent uptake by PMN (bioassay); format: in vitro ADME; conditions: intracellular/extracellular concentration, 1 h

Structure (SMILES) | stability in the presence of acids [1] | I/E ratio (PMN)
CC[C@H]1OC(=O)[C@H](C)[C@@H](O[C@H]2C[C@@](C)(OC)[C@@H](O)[C@H](C)O2)[C@H](C)[C@@H](O[C@@H]2O[C@H](C)C[C@H](N(C)C)[C@H]2O)[C@](C)(O)C[C@@H](C)CN(C)[C@H](C)[C@@H](O)[C@]1(C)O [Azithromycin] | more stable than erythromycin | –
C[C@H]1COc2c(N3CCN(C)CC3)c(F)cc3c(=O)c(C(=O)O)cn1c23 [Levofloxacin] | – | 4.8
COc1c(N2C[C@@H]3CCCN[C@@H]3C2)c(F)cc2c(=O)c(C(=O)O)cn(C3CC3)c12 [Moxifloxacin] | – | 12.0
CC1(C)SC2C(NC(=O)Cc3ccccc3)C(=O)N2C1C(=O)O (stereo not shown) [Penicillin G, 3,3-Dimethyl-7-oxo-6-phenylacetylamino-4-thia-1-aza-bicyclo[3.2.0]heptane-2-carboxylic acid] | – | 0.16

From patent US7271154B2, “Antibiotic conjugates” (Merckle GmbH, priority 2002, dated 2007)
